# Test system: B16F1 cells
# Assay: Screening of tranexamic acid-peptides: intracellular melanin production in α-MSH-treated melanocytes
# Type: cell-based, mouse
# Conditions: α-MSH 20 μg/mL, 3 days, intracellular melanin at 490 nm; Control (No Treatment) = 100; test concentration not stated (1-250 μg/mL tested)
# Method: B16F1 cells, which are mouse melanocytes, were cultured in Dulbecco's modified Eagle's media (DMEM, Sigma), to which 10% fetal bovine serum (FBS, Sigma) was added, under 37° C. CO2 conditions. The cells were cultured in a 24-well plate at a concentration of 1×10^5 cells/well, and the attachment of cells was confirmed. Then, the control group was not treated with anything but only a solvent was added thereto, whereas a-MSH (20 μg/mL) was added to the positive control group. The remaining dishes were treated with α-MSH (20 μg/mL), 40 kinds of tranexamic acid-peptides, and the control group with Arbutin and AA2G, to a concentration of 1 μg/mL, 10 μg/mL, 100 μg/mL, and 250 μg/mL, respectively. Test materials were added to each dish and cultured for 3 days. After 3 days, the culture was removed by centrifugation, and the cells were lysed and intracellular melanin was collected, and observed at 490 nm to measure the amount of intracellular melanin production.
# 40 kinds of tranexamic acid-peptides were treated according to concentration, and their inhibitory effect against melanin production was measured.
row,Compound,α-MSH Inhibitory Ability (%)
1,"NC[C@H]1CC[C@H](C(=O)O)CC1 [TXA, tranexamic acid]",45%
2,Tranexamil-AA [Dipeptide-26 AA],92%
3,Tranexamil-AH [Dipeptide-11 AH],82%
4,Tranexamil-AR [Dipeptide-31 AR],93%
5,Tranexamil-AS [Dipeptide-1 AS],98%
6,Tranexamil-AT [Dipeptide-2 AT],88%
7,Tranexamil-CC [Dipeptide-12 CC],83%
8,Tranexamil-CG [Dipeptide-39 CG],92%
9,Tranexamil-EC [Dipeptide-20 EC],61%
10,Tranexamil-ES [Dipeptide-5 ES],80%
11,Tranexamil-ET [Dipeptide-38 ET],52%
12,Tranexamil-GH [Dipeptide-9 GH],70%
13,Tranexamil-GK [Dipeptide-29 GK],96%
14,Tranexamil-GP [Dipeptide-4 GP],80%
15,Tranexamil-HA [Dipeptide-28 HA],87%
16,Tranexamil-KD [Dipeptide-16 KD],81%
17,Tranexamil-KK [Dipeptide-6 KK],83%
18,Tranexamil-KV [Dipeptide-30 KV],83%
19,Tranexamil-MA [Dipeptide-10 MA],56%

row,Compound,α-MSH Inhibitory Ability (%)
1,Tranexamil-MY [Dipeptide-8 MY],78%
2,Tranexamil-NA [Dipeptide-17 NA],79%
3,Tranexamil-NT [Dipeptide-40 NT],84%
4,Tranexamil-PF [Dipeptide-22 PF],89%
5,Tranexamil-PP [Dipeptide-35 PP],85%
6,Tranexamil-PQ [Dipeptide-33 PQ],71%
7,Tranexamil-QG [Dipeptide-34 QG],85%
8,Tranexamil-RP [Dipeptide-32 RP],87%
9,Tranexamil-SA [Dipeptide-13 SA],81%
10,Tranexamil-SS [Dipeptide-19 SS],80%
11,Tranexamil-SV [Dipeptide-37 SV],64%
12,Tranexamil-TA [Dipeptide-21 TA],76%
13,Tranexamil-TS [Dipeptide-18 TS],75%
14,Tranexamil-VP [Dipeptide-25 VP],69%
15,Tranexamil-VR [Dipeptide-36 VR],70%
16,Tranexamil-VV [Dipeptide-24 VV],72%
17,Tranexamil-WA [Dipeptide-14 WA],65%
18,Tranexamil-WE [Dipeptide-15 WE],78%

# Test system: skin pigmentation (melanin index)
# Assay: Clinical test of creams: skin pigmentation by Mexameter
# Type: in vivo, human
# Conditions: 54 women, creams with 1% tranexamic acid-dipeptide or tranexamic acid, 2 times a day
# From the text: In particular, a cream containing tranexamic acid was used as the positive control group and the standard base cream was used as the negative control group.
# The face of each subject was divided into two parts vertically and the two kinds of creams prepared above were applied to each face. The subjects were required to continuously use the creams in the morning and evening, 2 times a day for 8 weeks after washing the face.
# For the objective evaluation of changes in skin pigmentation before and after the use of the creams, the changes in pigmentation were measured using the Mexameter (CK, Germany) before the use of the creams, 2 weeks, 4 weeks, 6 weeks, and 8 weeks after the use of the creams.
# As a result of the above experiment, the tranexamic acid-dipeptide with a greater effect between the two kinds of tranexamic acid-dipeptides, was selected and, as an attempt to reduce the content in the cream, a cream containing 0.5% tranexamic acid-dipeptide was prepared. Ten women subjects were collected and the 8-week clinical experiment was performed in the same manner as described above.
row,Compound,decrease of the melanin index after 8 weeks
1,"NC[C@H]1CC[C@H](C(=O)O)CC1 [TXA, tranexamic acid]",11.4%

# Same assay, conditions: ten women, cream with 0.5% tranexamic acid-dipeptide or tranexamic acid, 2 times a day
row,Compound,decrease of the melanin index after 8 weeks
1,"NC[C@H]1CC[C@H](C(=O)O)CC1 [TXA, tranexamic acid]",10.2%

# Test system: mouse melanocytes
# Assay: Whitening effect: melanin production in α-MSH-treated melanocytes by visual inspection
# Type: cell-based
# Conditions: images of melanocytes, similar concentrations, 3 days
# Method: According to a preferred embodiment of the present invention, the peptides of the present invention […] the melanin production in a concentration-dependent manner. […] Additionally, when cells were treated with 4 kinds of the tranexamic acid-peptides; the peptides, to which tranexamic acid was not bound; Arbutin; and AA2G at various concentrations (1μ, 10μ, 100μ, and 250μ), cultured for 3 days, and the absorbance of the cultures were measured at 490 nm and analyzed.
# Tranexamic acid-peptides were treated according to concentration and their inhibitory effect against melanin production was measured. The mouse melanocytes were cultured in Dulbecco's modified Eagle's media (DMEM, Sigma) containing 10% fetal bovine serum ([…], Sigma) under 37° C. CO2 conditions.
# The cells were cultured in a 24-well plate at a concentration of 1×10^5 cells/well, and the attachment of cells was confirmed. Then, the control group was not treated with anything but only a solvent was added thereto, whereas a-MSH ([…]) was added to the positive control group. The remaining dishes were treated with α-MSH (20 μg/mL), 4 kinds of tranexamic acid-peptides, and the control group with Arbutin and AA2G, to a concentration of 1 μg/mL, 10 μg/mL, 100 μg/mL, and 250μ), respectively. Test materials were added to each dish and cultured for 3 days. […]
row,cell number compared to α-MSH treatment,Compound
1,rapidly decreased,OC[C@H]1O[C@@H](Oc2ccc(O)cc2)[C@H](O)[C@@H](O)[C@@H]1O [Arbutin]
